From ChEMBL document CHEMBL1201862, “PubChem BioAssay data set” (2004)
Active and inactive are the calls of the source.

How the values were obtained:
[1] = target: T1, Corticotropin-releasing factor receptor 2/Corticotropin-releasing factor-binding protein (Homo sapiens, UniProt P24387+Q13324); assay: Dose Response confirmation of uHTS hits for small molecule antagonists of the CRF-binding protein and CRF-R2 receptor complex.; type: functional; conditions: read-out: IC50_Mean
T1 sequence (Q13324 whole entry): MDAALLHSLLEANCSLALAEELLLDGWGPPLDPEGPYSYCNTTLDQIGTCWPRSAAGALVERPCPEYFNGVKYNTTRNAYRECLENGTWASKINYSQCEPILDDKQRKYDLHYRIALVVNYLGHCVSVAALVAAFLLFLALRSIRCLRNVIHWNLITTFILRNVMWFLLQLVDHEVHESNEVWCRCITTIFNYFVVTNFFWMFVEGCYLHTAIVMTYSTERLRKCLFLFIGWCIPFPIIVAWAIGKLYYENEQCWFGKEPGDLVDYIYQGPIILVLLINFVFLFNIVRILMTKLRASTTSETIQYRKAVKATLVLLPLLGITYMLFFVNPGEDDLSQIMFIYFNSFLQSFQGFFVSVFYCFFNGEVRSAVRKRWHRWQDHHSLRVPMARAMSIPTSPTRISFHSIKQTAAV
T1 sequence (P24387 whole entry): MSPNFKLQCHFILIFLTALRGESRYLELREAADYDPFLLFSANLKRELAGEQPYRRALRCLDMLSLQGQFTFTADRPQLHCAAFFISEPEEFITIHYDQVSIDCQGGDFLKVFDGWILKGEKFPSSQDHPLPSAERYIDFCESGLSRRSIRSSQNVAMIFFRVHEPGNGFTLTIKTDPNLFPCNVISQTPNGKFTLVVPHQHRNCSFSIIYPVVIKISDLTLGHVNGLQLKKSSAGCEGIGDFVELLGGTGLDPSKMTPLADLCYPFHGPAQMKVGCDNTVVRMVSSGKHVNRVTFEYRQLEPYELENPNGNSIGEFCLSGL

HEK293 = assay: inhibitors of LMP1-driven NF-kB reporter, dose response, cell-based, HEK293, luciferase, cherry-pick (AID 588343); type: functional; conditions: Homo sapiens
[2] = target: T1, Corticotropin-releasing factor receptor 2/Corticotropin-releasing factor-binding protein; assay: activators of CRF receptor 2 with binding protein – uHTS hits, confirmation (AID 602473); type: functional; conditions: read-out: EC50_Mean
HeLa = assay: HeLa cell cytotoxicity, dose response, cytotoxicity control for MITF activator project, CellTiter-Glo luminescence, cherry-pick samples (AID 540259); type: functional, cell-based; conditions: Homo sapiens
Beta Lactamase = Beta Lactamase (Pseudomonas aeruginosa, UniProt Q932Y6); assay: beta-lactamase reporter inhibitor potency, dose response, artefact control for TLR9-MyD88 binding inhibitor project, BLA reporter cells, FRET fluorescence (AID 588341); type: cell-based;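 note: cell based assay in CHO-K1 cells stably expressing beta-lactamase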
CHO = assay: cytotoxicity in TLR9-MyD88 CHO cells, dose response, cytotoxicity control for TLR9-MyD88 binding inhibitor project, cell-based, luminescence (AID 588339); type: functional, hamster; conditions: Cricetulus griseus;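 note: CHO cells stably coexpressing TLR9 and MyD88 fusions from primary screen; compound exposure lasted 48 hours before viability readout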
Caspase-3 = target: T2, Caspase-3 (Homo sapiens, UniProt P42574); assay: SAR Analysis of small molecule inhibitors of Sentrin-specific proteases (SENPs) using a Caspase-3 Selectivity assay. [Related pubchem assays (depositor defined):AID2540, AID2599, AID434973, AID489001]; type: functional
T2 sequence (P42574 whole entry): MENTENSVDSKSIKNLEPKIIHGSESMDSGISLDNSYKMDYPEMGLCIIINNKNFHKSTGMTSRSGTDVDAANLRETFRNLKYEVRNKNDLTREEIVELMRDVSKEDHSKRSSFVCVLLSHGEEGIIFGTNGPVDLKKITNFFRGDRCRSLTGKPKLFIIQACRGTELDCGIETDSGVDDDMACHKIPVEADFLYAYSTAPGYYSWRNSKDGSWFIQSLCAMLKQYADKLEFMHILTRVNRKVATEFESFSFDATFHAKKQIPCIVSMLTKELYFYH

[3] = target: T3, Sentrin-specific protease 8 (Homo sapiens, UniProt Q96LD8); assay: SENP8 protease inhibitors, SAR follow-up, biochemical, luminescence (AID 504501); type: functional
T3 sequence (Q96LD8 whole entry): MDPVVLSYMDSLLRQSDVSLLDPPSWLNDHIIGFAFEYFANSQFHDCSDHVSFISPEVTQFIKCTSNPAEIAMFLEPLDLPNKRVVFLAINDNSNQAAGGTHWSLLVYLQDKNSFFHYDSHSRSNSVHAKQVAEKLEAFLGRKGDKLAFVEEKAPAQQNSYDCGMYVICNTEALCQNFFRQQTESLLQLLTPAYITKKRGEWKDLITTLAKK

[4] = target: T4, Sentrin-specific protease 7 (Homo sapiens, UniProt Q9BQF6); assay: SENP7 protease inhibitors, SAR follow-up, biochemical, luminescence (AID 504497); type: functional
T4 sequence (Q9BQF6 whole entry): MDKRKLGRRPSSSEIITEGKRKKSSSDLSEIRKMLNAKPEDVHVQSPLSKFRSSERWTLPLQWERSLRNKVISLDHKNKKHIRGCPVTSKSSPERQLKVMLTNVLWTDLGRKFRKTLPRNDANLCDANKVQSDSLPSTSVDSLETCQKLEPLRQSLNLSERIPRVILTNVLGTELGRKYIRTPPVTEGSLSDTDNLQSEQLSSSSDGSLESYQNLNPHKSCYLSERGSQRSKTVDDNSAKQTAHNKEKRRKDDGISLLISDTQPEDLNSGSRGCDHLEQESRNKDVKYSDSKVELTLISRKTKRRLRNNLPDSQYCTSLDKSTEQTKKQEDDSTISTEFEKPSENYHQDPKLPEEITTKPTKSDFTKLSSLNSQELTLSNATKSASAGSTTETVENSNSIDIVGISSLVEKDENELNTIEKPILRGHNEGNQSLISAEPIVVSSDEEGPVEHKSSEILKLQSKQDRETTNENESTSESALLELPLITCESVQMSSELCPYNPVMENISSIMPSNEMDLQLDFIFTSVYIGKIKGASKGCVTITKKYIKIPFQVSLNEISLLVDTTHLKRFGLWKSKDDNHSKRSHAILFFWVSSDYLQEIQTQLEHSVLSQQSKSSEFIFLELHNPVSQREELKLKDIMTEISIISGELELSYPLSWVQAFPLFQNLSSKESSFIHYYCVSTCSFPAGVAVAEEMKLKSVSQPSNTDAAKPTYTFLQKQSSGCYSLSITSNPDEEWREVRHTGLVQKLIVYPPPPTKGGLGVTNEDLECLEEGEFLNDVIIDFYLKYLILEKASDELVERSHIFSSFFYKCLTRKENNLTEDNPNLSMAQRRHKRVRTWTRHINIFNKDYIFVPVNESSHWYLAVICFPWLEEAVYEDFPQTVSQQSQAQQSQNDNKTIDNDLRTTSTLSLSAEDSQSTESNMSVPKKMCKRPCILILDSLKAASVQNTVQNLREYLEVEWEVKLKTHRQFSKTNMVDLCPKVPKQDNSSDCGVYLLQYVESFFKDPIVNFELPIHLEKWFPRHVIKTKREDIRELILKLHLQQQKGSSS

[5] = target: T5, Sentrin-specific protease 6 (Homo sapiens, UniProt Q9GZR1); assay: SAR Analysis of small molecule inhibitors of Sentrin-specific protease 6 (SENP6) using a Luminescent assay. [Related pubchem assays (depositor defined):AID2582, AID2599]; type: functional
T5 sequence (Q9GZR1 whole entry): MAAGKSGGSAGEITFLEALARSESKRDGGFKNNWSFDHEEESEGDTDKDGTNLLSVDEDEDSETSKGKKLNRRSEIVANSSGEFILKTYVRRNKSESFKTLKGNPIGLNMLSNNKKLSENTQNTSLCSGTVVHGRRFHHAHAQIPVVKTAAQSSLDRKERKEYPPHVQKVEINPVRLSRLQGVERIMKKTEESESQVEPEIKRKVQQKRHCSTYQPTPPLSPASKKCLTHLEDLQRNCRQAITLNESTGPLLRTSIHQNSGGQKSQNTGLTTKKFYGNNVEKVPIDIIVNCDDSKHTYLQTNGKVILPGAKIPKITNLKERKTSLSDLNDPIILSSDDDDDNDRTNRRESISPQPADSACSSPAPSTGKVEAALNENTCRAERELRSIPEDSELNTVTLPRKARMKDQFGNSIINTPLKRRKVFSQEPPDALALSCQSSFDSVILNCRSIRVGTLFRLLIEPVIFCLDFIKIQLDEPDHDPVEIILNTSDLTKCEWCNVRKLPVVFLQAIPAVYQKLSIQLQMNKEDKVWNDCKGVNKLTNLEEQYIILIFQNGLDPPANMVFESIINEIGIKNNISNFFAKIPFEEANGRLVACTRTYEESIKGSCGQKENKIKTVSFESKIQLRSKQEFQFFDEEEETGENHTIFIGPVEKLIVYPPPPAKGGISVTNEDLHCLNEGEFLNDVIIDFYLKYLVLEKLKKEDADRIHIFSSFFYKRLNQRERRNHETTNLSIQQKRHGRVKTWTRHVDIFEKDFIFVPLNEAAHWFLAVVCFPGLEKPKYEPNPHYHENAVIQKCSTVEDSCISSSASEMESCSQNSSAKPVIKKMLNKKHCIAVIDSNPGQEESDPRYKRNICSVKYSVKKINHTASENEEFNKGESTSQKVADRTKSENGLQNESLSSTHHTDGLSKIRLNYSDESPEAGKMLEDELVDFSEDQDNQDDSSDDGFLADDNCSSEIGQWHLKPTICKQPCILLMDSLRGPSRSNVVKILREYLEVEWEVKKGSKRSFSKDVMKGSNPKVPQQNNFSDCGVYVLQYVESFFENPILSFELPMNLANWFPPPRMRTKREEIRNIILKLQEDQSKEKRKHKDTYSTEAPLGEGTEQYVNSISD

[6] = target: T6, Endoribonuclease toxin MazF (Escherichia coli K-12, UniProt P0AE70); assay: fluorescent RNA oligo signal without MazF, dose response, counter-screen for MazEF activator project, biochemical, fluorescence, single-stranded RNase substrate (AID 588502); type: functional
T6 sequence (P0AE70 whole entry): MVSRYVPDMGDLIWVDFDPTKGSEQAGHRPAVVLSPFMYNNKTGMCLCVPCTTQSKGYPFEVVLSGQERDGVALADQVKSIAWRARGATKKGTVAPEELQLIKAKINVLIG

[7] = target: Arf-GAP with SH3 domain, ANK repeat and PH domain-containing protein 1 (Homo sapiens, UniProt Q9ULH1); type: functional;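 note: biochemical fluorescence polarization dose–response screen measuring inhibition of ASAP1; ASAP1 GAP domain stimulating GTP hydrolysis by truncated human ARF1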
[8] = target: T6, Endoribonuclease toxin MazF; assay: MazF toxin RNase activators, dose response, biochemical, fluorescence, single-stranded RNA substrate, uHTS hits (AID 588481); type: functional

Sequence of Beta Lactamase (Q932Y6 whole entry, the tested form may be a part): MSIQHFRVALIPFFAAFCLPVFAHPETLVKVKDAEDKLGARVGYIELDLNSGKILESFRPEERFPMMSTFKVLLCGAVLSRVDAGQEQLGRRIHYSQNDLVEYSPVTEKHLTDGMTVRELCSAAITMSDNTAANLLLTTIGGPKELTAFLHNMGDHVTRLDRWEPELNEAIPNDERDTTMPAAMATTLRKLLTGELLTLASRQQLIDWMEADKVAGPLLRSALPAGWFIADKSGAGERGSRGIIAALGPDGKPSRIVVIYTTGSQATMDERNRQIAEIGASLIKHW
Sequence of Arf-GAP with SH3 domain, ANK repeat and PH domain-containing protein 1 (Q9ULH1 whole entry, the tested form may be a part): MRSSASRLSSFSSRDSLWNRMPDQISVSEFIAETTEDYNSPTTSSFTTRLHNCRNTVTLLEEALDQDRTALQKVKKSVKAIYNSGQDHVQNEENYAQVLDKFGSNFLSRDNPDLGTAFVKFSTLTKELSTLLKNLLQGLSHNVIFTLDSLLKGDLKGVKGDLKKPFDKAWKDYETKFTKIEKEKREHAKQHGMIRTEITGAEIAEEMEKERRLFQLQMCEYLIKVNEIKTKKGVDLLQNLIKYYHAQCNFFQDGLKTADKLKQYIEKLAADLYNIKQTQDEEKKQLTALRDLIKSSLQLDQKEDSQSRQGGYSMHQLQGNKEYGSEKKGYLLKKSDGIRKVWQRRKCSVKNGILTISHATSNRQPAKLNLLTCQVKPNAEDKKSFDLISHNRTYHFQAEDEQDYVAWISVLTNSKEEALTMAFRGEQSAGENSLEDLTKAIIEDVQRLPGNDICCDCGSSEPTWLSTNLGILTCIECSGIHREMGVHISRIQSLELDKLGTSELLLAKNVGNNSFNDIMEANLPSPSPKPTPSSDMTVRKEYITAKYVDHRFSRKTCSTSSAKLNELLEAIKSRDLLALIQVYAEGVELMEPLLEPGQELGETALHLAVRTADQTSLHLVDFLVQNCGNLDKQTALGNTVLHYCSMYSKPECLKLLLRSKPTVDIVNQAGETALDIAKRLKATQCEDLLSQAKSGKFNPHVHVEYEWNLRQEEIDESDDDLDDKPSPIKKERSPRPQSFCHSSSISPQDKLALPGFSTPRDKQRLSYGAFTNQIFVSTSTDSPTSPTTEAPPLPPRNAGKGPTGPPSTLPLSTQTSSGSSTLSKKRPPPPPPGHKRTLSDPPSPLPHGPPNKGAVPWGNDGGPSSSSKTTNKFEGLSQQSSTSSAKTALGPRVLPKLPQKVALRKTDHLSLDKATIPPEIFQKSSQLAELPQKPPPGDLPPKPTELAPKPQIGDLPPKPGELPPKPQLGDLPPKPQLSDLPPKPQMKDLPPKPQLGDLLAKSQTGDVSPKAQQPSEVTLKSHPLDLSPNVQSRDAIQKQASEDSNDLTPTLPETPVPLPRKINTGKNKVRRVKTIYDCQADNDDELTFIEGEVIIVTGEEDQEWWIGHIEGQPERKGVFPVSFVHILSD

For `COc1ccc(C(=O)Nn2c(SCC(=O)NC3CCCCC3)nc3ccccc3c2=O)cc1`, the IC50 [1] was < 0.368 µM (active), the AC50 (HEK293) was 6.79 µM (active) and the EC50 [2] was > 53 µM (inactive).
`Nc1c(C(=O)N2CCCC2)sc2nc(-c3ccccc3)ccc12` was tested, and the AC50 (HeLa) was 197 µM (active), the IC50 (Beta Lactamase) was 12.4 µM (inactive) and the IC50 (CHO) was > 49.7 µM (inactive).
For `COc1ccc(OC)c2sc(NC(=O)c3ccc(Br)s3)nc12`, the IC50 (Caspase-3) was > 99 µM (inactive), the IC50 [3] was > 99 µM (inactive) and the IC50 [4] was > 99 µM (inactive). The IC50 [5] was > 99 µM (inactive).
With `COc1cc2c3nnc(-c4ccc(F)cc4)c-3cn(Cc3cccc(C)c3)c2cc1OC` the EC50 [6] was 16.7 µM (active), the IC50 (Beta Lactamase) was 3.92 µM (active) and the IC50 (CHO) was 10.2 µM (inactive). For the same molecule, the IC50 [7] was 7.44 µM (active) and the EC50 [8] was 24.1 µM (inactive).
